In patent US20210047304A1, “Bromodomain Inhibitors” (AbbVie Inc., priority 2016, published 2021):

Biological target: BRD4 (BDI_K57-E168) (Homo sapiens, UniProt O60885)
Assay: TR-FRET bromodomain binding assay, BRD4 BDI
Procedure: A time-resolved fluorescence resonance energy transfer (TR-FRET) assay was used to determine the affinities of compounds of the Examples listed in Table 1 for each bromodomain of BRD4. […] An Alexa647-labeled BET-inhibitor was used as the fluorescent probe in the assay.
(§1) Compound dilution series were prepared in DMSO via an approximately 3-fold serial dilution. Compound dilutions were added directly into white, low-volume assay plates (Perkin Elmer Proxiplate 384 Plus #6008280) using a Labcyte Echo in conjunction with Labcyte Access and Thermo Multidrop CombinL robotics. Compounds were then suspended in eight microliters (μL) of assay buffer (20 mM Sodium Phosphate, pH 6.0, 50 mM NaCl, 1 mM Ethylenediaminetetraacetic acid disodium salt dihydrate, 0.01% Triton X-100, 1 mM DL-Dithiothreitol) containing His-tagged bromodomain, Europium-conjugated anti-His antibody (Invitrogen PV5596) and Alexa-647-conjugated probe.
After a one-hour equilibration at room temperature, TR-FRET ratios were determined using an Envision multilabel plate reader (Ex 340, Em 495/520).
TR-FRET data were normalized to the means of 24 no-compound controls (“high”) and 8 controls containing 1 μM un-labeled probe (“low”). Percent inhibition was plotted as a function of compound concentration and the data were fit with the 4 parameter logistic equation to obtain IC50s. Inhibition constants (Ki) were calculated from the IC50s, probe Kd and probe concentration.
Compound dilution series for Compounds A-E were prepared in DMSO via an approximately 3-fold serial dilution from 0.47 mM to 7.8 nM.
as §1, with “Compound” for “Compound dilution series were prepared in DMSO via an approximately 3-fold serial dilution. Compound”
TR-FRET data were normalized to the means of 24 no-compound controls (“high”) and 8 controls containing 1 μM un-labeled probe (“low”). Percent inhibition was plotted as a function of compound concentration and the data were fit with the 4 parameter logistic equation to obtain IC50s. Inhibition constants (Ki) were calculated from the IC50s, probe Kd and probe concentration. Typical Z′ values were between 0.65 and 0.75. The minimum significant ratio was determined to evaluate assay reproducibility (Eastwood et al., (2006) J Biomol Screen, 11: 253-261). The MSR was determined to be 2.03 for BDI and 1.93 for BDII, and a moving MSR (last six run MSR overtime) for both BDI and BDII was typically <3.

| SMILES | Ki [nM] |
| --- | --- |
| Cc1cc(F)cc(C)c1Oc1ccc(C(C)(C)O)cc1-c1cn(C)c(=O)cc1O[C@H]1CC[C@H](N2C(=O)CCC2C)CC1 (relative stereo) [Example 42, 5-[2-(4-fluoro-2,6-dimethylphenoxy)-5-(2-hydroxypropan-2-yl)phenyl]-1-methyl-4-{[trans-4-(2-methyl-5-oxopyrrolidin-1-yl)cyclohexyl]oxy}pyridin-2(1H)-one] | 3840 |
| Cc1cc(F)cc(C)c1Oc1ccc(C(C)(C)O)cc1-c1cn(C)c(=O)cc1O[C@H]1CC[C@H](NC(=O)C23CC(NC(=O)OC(C)(C)C)(C2)C3)CC1 (relative stereo) [Example 72, tert-butyl (3-{[trans-4-({5-[2-(4-fluoro-2,6-dimethylphenoxy)-5-(2-hydroxypropan-2-yl)phenyl]-1-methyl-2-oxo-1,2-dihydropyridin-4-yl}oxy)cyclohexyl]carbamoyl}bicyclo[1.1.1]pentan-1-yl)carbamate] | > 13000 |
| Cc1cc(F)cc(C)c1Oc1ccc(C(C)(C)O)cc1-c1cn(C)c(=O)cc1O[C@H]1CC[C@H](NC(=O)C23CC(C2)C3)CC1 (relative stereo) [Example 86, N-[trans-4-({5-[2-(4-fluoro-2,6-dimethylphenoxy)-5-(2-hydroxypropan-2-yl)phenyl]-1-methyl-2-oxo-1,2-dihydropyridin-4-yl}oxy)cyclohexyl]bicyclo[1.1.1]pentane-1-carboxamide] | 1740 |
| Cc1cc(F)cc(C)c1Oc1ccc(C(C)(C)O)cc1-c1cn(C)c(=O)cc1O[C@H]1CC[C@H](NC(=O)C23CC(N)(C2)C3)CC1 (relative stereo) [Example 93, 3-amino-N-[trans-4-({5-[2-(4-fluoro-2,6-dimethylphenoxy)-5-(2-hydroxypropan-2-yl)phenyl]-1-methyl-2-oxo-1,2-dihydropyridin-4-yl}oxy)cyclohexyl]bicyclo[1.1.1]pentane-1-carboxamide] | 1190 |
| Cc1cc(F)cc(C)c1Oc1ccc(C(C)(C)O)cc1-c1cn(C)c(=O)cc1O[C@H]1CC[C@H](NC(=O)C23CCC(NC(=O)OC(C)(C)C)(C2)C3)CC1 (relative stereo) [Example 103, tert-butyl (4-{[trans-4-({5-[2-(4-fluoro-2,6-dimethylphenoxy)-5-(2-hydroxypropan-2-yl)phenyl]-1-methyl-2-oxo-1,2-dihydropyridin-4-yl}oxy)cyclohexyl]carbamoyl}bicyclo[2.1.1]hexan-1-yl)carbamate] | 8010 |
| Cc1cc(F)cc(C)c1Oc1ccc(C(C)(C)O)cc1-c1cn(C)c(=O)cc1O[C@H]1CC[C@H](NC(=O)C23CCC(CO)(CC2)CC3)CC1 (relative stereo) [Example 110, N-[trans-4-({5-[2-(4-fluoro-2,6-dimethylphenoxy)-5-(2-hydroxypropan-2-yl)phenyl]-1-methyl-2-oxo-1,2-dihydropyridin-4-yl}oxy)cyclohexyl]-4-(hydroxymethyl)bicyclo[2.2.2]octane-1-carboxamide] | 3650 |
| Cc1cc(F)cc(C)c1Oc1ccc(C(C)(C)O)cc1-c1cn(C)c(=O)cc1O[C@H]1CC[C@H](N2C(=O)C3COCCN3C2=O)CC1 (relative stereo) [Example 126, 2-[trans-4-({5-[2-(4-fluoro-2,6-dimethylphenoxy)-5-(2-hydroxypropan-2-yl)phenyl]-1-methyl-2-oxo-1,2-dihydropyridin-4-yl}oxy)cyclohexyl]tetrahydro-1H-imidazo[5,1-c][1,4]oxazine-1,3(2H)-dione] | > 13000 |
| Cc1cc(F)cc(C)c1Oc1ccc(C(C)(C)O)cc1-c1cn(C)c(=O)cc1O[C@H]1CC[C@H](N2C(=O)C3CC3C2=O)CC1 (relative stereo) [Example 129, 3-[trans-4-({5-[2-(4-fluoro-2,6-dimethylphenoxy)-5-(2-hydroxypropan-2-yl)phenyl]-1-methyl-2-oxo-1,2-dihydropyridin-4-yl}oxy)cyclohexyl]-3-azabicyclo[3.1.0]hexane-2,4-dione] | 772 |
| Cc1cc(F)cc(C)c1Oc1ccc(C(C)(C)O)cc1-c1cn(C)c(=O)cc1O[C@H]1CC[C@H](N2C(=O)C(C)(C)N(C)C2C)CC1 (relative stereo) [Example 134, 5-[2-(4-fluoro-2,6-dimethylphenoxy)-5-(2-hydroxypropan-2-yl)phenyl]-1-methyl-4-{[trans-4-(2,3,4,4-tetramethyl-5-oxoimidazolidin-1-yl)cyclohexyl]oxy}pyridin-2(1H)-one] | 1670 |
| CC(=O)NC12CCC(C(=O)N[C@H]3CC[C@H](Oc4cc(=O)n(C)cc4-c4cc(C(C)(C)O)ccc4Oc4c(C)cc(F)cc4C)CC3)(C1)C2 (relative stereo) [Example 137, 4-acetamido-N-[trans-4-({5-[2-(4-fluoro-2,6-dimethylphenoxy)-5-(2-hydroxypropan-2-yl)phenyl]-1-methyl-2-oxo-1,2-dihydropyridin-4-yl}oxy)cyclohexyl]bicyclo[2.1.1]hexane-1-carboxamide] | 1800 |
| CC(=O)N[C@H]1CC[C@H](Oc2cc(=O)n(C)cc2-c2cc(C(C)(C)O)cnc2Oc2c(C)cc(F)cc2C)CC1 [Example 1, N-(trans-4-{[2′-(4-fluoro-2,6-dimethylphenoxy)-5′-(2-hydroxypropan-2-yl)-1-methyl-6-oxo[1,6-dihydro[3,3′-bipyridine]]-4-yl]oxy}cyclohexyl)acetamide] | 1710 |
| Cc1cccc(C)c1Oc1ccc(C(C)(C)O)cc1-c1cn(C)c(=O)cc1NC1CCN(S(C)(=O)=O)CC1 [Example 2, 5-[2-(2,6-dimethylphenoxy)-5-(2-hydroxypropan-2-yl)phenyl]-4-{[1-(methanesulfonyl)piperidin-4-yl]amino}-1-methylpyridin-2(1H)-one] | 5890 |
| CC(=O)N[C@H]1CC[C@H](Oc2cc(=O)n(C)cc2-c2cc(C(C)(C)O)ccc2Oc2c(C)cc(F)cc2C)CC1 [Example 3, N-[trans-4-({5-[2-(4-fluoro-2,6-dimethylphenoxy)-5-(2-hydroxypropan-2-yl)phenyl]-1-methyl-2-oxo-1,2-dihydropyridin-4-yl}oxy)cyclohexyl]acetamide] | 1020 |
| COC(=O)N[C@H]1CC[C@H](Oc2cc(=O)n(C)cc2-c2cc(C(C)(C)O)ccc2Oc2c(C)cc(F)cc2C)CC1 [Example 4, methyl [trans-4-({5-[2-(4-fluoro-2,6-dimethylphenoxy)-5-(2-hydroxypropan-2-yl)phenyl]-1-methyl-2-oxo-1,2-dihydropyridin-4-yl}oxy)cyclohexyl]carbamate] | 1450 |
| COC(=O)N[C@H]1CC[C@H](Oc2cc(=O)n(C)cc2-c2cc(C(C)(C)O)cnc2Oc2c(C)cc(F)cc2C)CC1 [Example 5, methyl (trans-4-{[2′-(4-fluoro-2,6-dimethylphenoxy)-5′-(2-hydroxypropan-2-yl)-1-methyl-6-oxo[1,6-dihydro[3,3′-bipyridine]]-4-yl]oxy}cyclohexyl)carbamate] | 1960 |
| CC(=O)NC[C@H]1C[C@H](Oc2cc(=O)n(C)cc2-c2cc(C(C)(C)O)ccc2Oc2c(C)cc(F)cc2C)C1 [Example 6, N-{[trans-3-({5-[2-(4-fluoro-2,6-dimethylphenoxy)-5-(2-hydroxypropan-2-yl)phenyl]-1-methyl-2-oxo-1,2-dihydropyridin-4-yl}oxy)cyclobutyl]methyl}acetamide] | 720 |
| COC(=O)NC[C@H]1C[C@H](Oc2cc(=O)n(C)cc2-c2cc(C(C)(C)O)ccc2Oc2c(C)cc(F)cc2C)C1 [Example 7, methyl {[trans-3-({5-[2-(4-fluoro-2,6-dimethylphenoxy)-5-(2-hydroxypropan-2-yl)phenyl]-1-methyl-2-oxo-1,2-dihydropyridin-4-yl}oxy)cyclobutyl]methyl}carbamate] | 906 |
| Cc1cc(F)cc(C)c1Oc1ccc(C(C)(C)O)cc1-c1cn(C)c(=O)cc1O[C@H]1C[C@@H](CNC(=O)OC(C)(C)C)C1 [Example 8, tert-butyl {[cis-3-({5-[2-(4-fluoro-2,6-dimethylphenoxy)-5-(2-hydroxypropan-2-yl)phenyl]-1-methyl-2-oxo-1,2-dihydropyridin-4-yl}oxy)cyclobutyl]methyl}carbamate] | 2700 |
| Cc1cc(F)cc(C)c1Oc1ccc(C(C)(C)O)cc1-c1cn(C)c(=O)cc1NC1CCN(S(C)(=O)=O)CC1 [Example 9, 5-[2-(4-fluoro-2,6-dimethylphenoxy)-5-(2-hydroxypropan-2-yl)phenyl]-4-{[1-(methanesulfonyl)piperidin-4-yl]amino}-1-methylpyridin-2(1H)-one] | 3680 |
